Legend:
[1] = Cytotoxicity against human colon cancer cells; assay type: functional; details: Cancer cell lines
[2] = Cytotoxicity against human leukemia cells; assay type: functional; details: Leukemia cell
[3] = tested on: Aspergillus fumigatus; assay: Antifungal activity against Aspergillus fumigatus ATCC 280996; assay type: functional
[4] = Cytotoxicity against human Molt 4/C8 cells; assay type: functional, cell-based; details: Molt4/C8
[5] = tested on: CCRF-CEM; assay: Cytotoxicity against human CEM cells; assay type: functional, cell-based
[6] = tested on: Aspergillus fumigatus; assay: Antifungal activity against Aspergillus fumigatus ATCC 280997; assay type: functional
[7] = tested on: Aspergillus fumigatus; assay: Antifungal activity against Aspergillus fumigatus F69827; assay type: functional
[8] = tested on: Aspergillus fumigatus; assay: Antifungal activity against Aspergillus fumigatus M44251; assay type: functional
[9] = tested on: L1210; assay: Cytotoxicity against mouse L1210 cells; assay type: functional, cell-based
[10] = tested on: Aspergillus fumigatus; assay: Antifungal activity against Aspergillus fumigatus ATCC 280995; assay type: functional
[11] = tested on: Mus musculus; assay: Neurotoxicity in mouse assessed as mortality up to 300 mg/kg after 4 hrs; assay type: toxicity, organism-based; design: dose 300 mg/kg; details: in vivo
[12] = molecular target: T1, Glycylpeptide N-tetradecanoyltransferase 1 (Homo sapiens) (UniProt P30419); assay: Inhibition of human NMT at 50 uM
T1 sequence (whole entry): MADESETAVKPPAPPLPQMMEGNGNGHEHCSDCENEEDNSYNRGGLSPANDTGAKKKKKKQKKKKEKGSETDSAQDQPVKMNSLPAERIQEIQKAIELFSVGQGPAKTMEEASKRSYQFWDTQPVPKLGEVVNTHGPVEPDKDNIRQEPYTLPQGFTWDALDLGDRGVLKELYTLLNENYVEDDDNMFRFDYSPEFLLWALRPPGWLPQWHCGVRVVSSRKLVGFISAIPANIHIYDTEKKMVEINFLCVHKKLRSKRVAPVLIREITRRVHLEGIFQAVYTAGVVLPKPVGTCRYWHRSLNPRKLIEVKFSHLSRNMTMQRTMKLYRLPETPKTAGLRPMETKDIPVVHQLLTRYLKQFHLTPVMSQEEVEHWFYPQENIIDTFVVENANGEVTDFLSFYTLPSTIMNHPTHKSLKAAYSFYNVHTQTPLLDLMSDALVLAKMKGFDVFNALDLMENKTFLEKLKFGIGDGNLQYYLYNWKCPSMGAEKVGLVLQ

[13] = molecular target: T1, Glycylpeptide N-tetradecanoyltransferase 1 (Homo sapiens); assay: Inhibition of human NMT at 100 uM

SMILES: N[C@@H](Cc1ccc(N(CCCl)CCCl)cc1)C(=O)O [MELPHALAN]
- GI50 [1]: 50100 nM
- GI50 [2]: 3980 nM

SMILES: O=C(/C=C/C(=O)N1C/C(=C\c2ccc([N+](=O)[O-])cc2)C(=O)/C(=C/c2ccc([N+](=O)[O-])cc2)C1)Nc1ccc([N+](=O)[O-])cc1
- MIC [3]: > 50 µg/mL
- IC50 [4]: 430 nM
- IC50 [5]: 410 nM
- MIC [6]: > 50 µg/mL
- MIC [7]: > 50 µg/mL
- MIC [8]: > 50 µg/mL
- IC50 [9]: 1000 nM
- MIC [10]: > 50 µg/mL
- Activity [11]: Non-toxic

SMILES: Cc1cccc(C)c1NC(=O)/C=C/C(=O)N1C/C(=C\c2ccccc2)C(=O)/C(=C/c2ccccc2)C1
- MIC [3]: > 50 µg/mL
- IC50 [4]: 6600 nM
- IC50 [5]: 7400 nM
- MIC [6]: > 50 µg/mL
- MIC [7]: > 50 µg/mL
- MIC [8]: > 50 µg/mL
- IC50 [9]: 22000 nM
- MIC [10]: > 50 µg/mL
- Activity [11]: Non-toxic

SMILES: O=C(/C=C/C(=O)N1C/C(=C\c2ccccc2)C(=O)/C(=C/c2ccccc2)C1)Nc1ccccc1
- MIC [3]: > 50 µg/mL
- IC50 [4]: 520 nM
- IC50 [5]: 1100 nM
- MIC [6]: > 50 µg/mL
- MIC [7]: > 50 µg/mL
- MIC [8]: > 50 µg/mL
- IC50 [9]: 3600 nM
- MIC [10]: > 50 µg/mL
- Activity [11]: Non-toxic

SMILES: O=c1[nH]cc(F)c(=O)[nH]1 [FLUOROURACIL]
- GI50 [1]: 5750 nM
- GI50 [2]: 52500 nM

SMILES: Cc1ccc(NC(=O)/C=C/C(=O)N2C/C(=C\c3ccccc3)C(=O)/C(=C/c3ccccc3)C2)cc1C
- MIC [3]: > 50 µg/mL
- IC50 [4]: 7900 nM
- IC50 [5]: 7100 nM
- MIC [6]: > 50 µg/mL
- MIC [7]: > 50 µg/mL
- MIC [8]: > 50 µg/mL
- IC50 [9]: 31000 nM
- MIC [10]: > 50 µg/mL
- Activity [11]: Non-toxic

SMILES: CC(=O)c1ccc(NC(=O)/C=C/C(=O)N2C/C(=C\c3ccc([N+](=O)[O-])cc3)C(=O)/C(=C/c3ccc([N+](=O)[O-])cc3)C2)cc1
- MIC [3]: > 50 µg/mL
- IC50 [4]: 390 nM
- IC50 [5]: 360 nM
- MIC [6]: > 50 µg/mL
- MIC [7]: > 50 µg/mL
- MIC [8]: > 50 µg/mL
- IC50 [9]: 1400 nM
- MIC [10]: > 50 µg/mL
- Activity [11]: Non-toxic

SMILES: O=C(/C=C/C(=O)N1C/C(=C\c2ccc([N+](=O)[O-])cc2)C(=O)/C(=C/c2ccc([N+](=O)[O-])cc2)C1)Nc1ccc(Cl)cc1
- MIC [3]: > 50 µg/mL
- IC50 [4]: 1200 nM
- IC50 [5]: 810 nM
- MIC [6]: > 50 µg/mL
- MIC [7]: > 50 µg/mL
- MIC [8]: > 50 µg/mL
- IC50 [9]: 3600 nM
- MIC [10]: > 50 µg/mL
- Activity [11]: Non-toxic

SMILES: Cc1ccc(NC(=O)/C=C/C(=O)N2C/C(=C\c3ccccc3)C(=O)/C(=C/c3ccccc3)C2)cc1
- MIC [3]: > 50 µg/mL
- IC50 [4]: 660 nM
- IC50 [5]: 1100 nM
- MIC [6]: > 50 µg/mL
- MIC [7]: > 50 µg/mL
- MIC [8]: > 50 µg/mL
- IC50 [9]: 5800 nM
- MIC [10]: > 50 µg/mL
- inhibition [12]: 50%
- Activity [11]: Non-toxic

SMILES: O=C(/C=C/C(=O)N1C/C(=C\c2ccccc2)C(=O)/C(=C/c2ccccc2)C1)Nc1ccc(Cl)cc1
- MIC [3]: > 50 µg/mL
- IC50 [4]: 1800 nM
- GI50 [1]: 1150 nM
- IC50 [5]: 840 nM
- MIC [6]: > 50 µg/mL
- MIC [7]: > 50 µg/mL
- GI50 [2]: 589 nM
- MIC [8]: > 50 µg/mL
- IC50 [9]: 7800 nM
- MIC [10]: > 50 µg/mL
- Activity [11]: Non-toxic

SMILES: O=C(/C=C/C(=O)N1C/C(=C\c2ccc([N+](=O)[O-])cc2)C(=O)/C(=C/c2ccc([N+](=O)[O-])cc2)C1)Nc1ccccc1
- MIC [3]: > 50 µg/mL
- IC50 [4]: 360 nM
- IC50 [5]: 370 nM
- MIC [6]: > 50 µg/mL
- MIC [7]: > 50 µg/mL
- MIC [8]: > 50 µg/mL
- IC50 [9]: 1800 nM
- MIC [10]: > 50 µg/mL
- Activity [11]: Non-toxic

SMILES: Cc1cccc(C)c1NC(=O)/C=C/C(=O)N1C/C(=C\c2ccc([N+](=O)[O-])cc2)C(=O)/C(=C/c2ccc([N+](=O)[O-])cc2)C1
- MIC [3]: > 50 µg/mL
- IC50 [4]: 210 nM
- IC50 [5]: 230 nM
- MIC [6]: > 50 µg/mL
- MIC [7]: > 50 µg/mL
- MIC [8]: > 50 µg/mL
- IC50 [9]: 690 nM
- MIC [10]: > 50 µg/mL
- Activity [11]: Non-toxic

SMILES: O=C(/C=C/C(=O)N1C/C(=C\c2ccccc2)C(=O)/C(=C/c2ccccc2)C1)Nc1ccc([N+](=O)[O-])cc1
- MIC [3]: > 50 µg/mL
- IC50 [4]: 31000 nM
- IC50 [5]: 40000 nM
- MIC [6]: > 50 µg/mL
- MIC [7]: > 50 µg/mL
- MIC [8]: > 50 µg/mL
- IC50 [9]: 40000 nM
- MIC [10]: > 50 µg/mL
- Activity [11]: Non-toxic

SMILES: Cc1ccc(NC(=O)/C=C/C(=O)N2C/C(=C\c3ccc([N+](=O)[O-])cc3)C(=O)/C(=C/c3ccc([N+](=O)[O-])cc3)C2)cc1C
- MIC [3]: > 50 µg/mL
- IC50 [4]: 660 nM
- IC50 [5]: 700 nM
- MIC [6]: > 50 µg/mL
- MIC [7]: > 50 µg/mL
- MIC [8]: > 50 µg/mL
- IC50 [9]: 4900 nM
- MIC [10]: > 50 µg/mL
- Activity [11]: Non-toxic

SMILES: COc1ccc(NC(=O)/C=C/C(=O)N2C/C(=C\c3ccccc3)C(=O)/C(=C/c3ccccc3)C2)cc1
- MIC [3]: > 50 µg/mL
- IC50 [4]: 1100 nM
- GI50 [1]: 759 nM
- IC50 [5]: 510 nM
- MIC [6]: > 50 µg/mL
- MIC [7]: > 50 µg/mL
- GI50 [2]: 105 nM
- MIC [8]: > 50 µg/mL
- IC50 [9]: 6800 nM
- MIC [10]: > 50 µg/mL
- Activity [11]: Non-toxic

SMILES: Cc1ccc(NC(=O)/C=C/C(=O)N2C/C(=C\c3ccc([N+](=O)[O-])cc3)C(=O)/C(=C/c3ccc([N+](=O)[O-])cc3)C2)cc1
- MIC [3]: > 50 µg/mL
- IC50 [4]: 700 nM
- IC50 [5]: 890 nM
- MIC [6]: > 50 µg/mL
- MIC [7]: > 50 µg/mL
- MIC [8]: > 50 µg/mL
- IC50 [9]: 4400 nM
- MIC [10]: > 50 µg/mL
- inhibition [12]: 50%
- Activity [11]: Non-toxic

SMILES: COc1ccc(NC(=O)/C=C/C(=O)N2C/C(=C\c3ccc([N+](=O)[O-])cc3)C(=O)/C(=C/c3ccc([N+](=O)[O-])cc3)C2)cc1
- MIC [3]: > 50 µg/mL
- IC50 [4]: 940 nM
- IC50 [5]: 760 nM
- MIC [6]: > 50 µg/mL
- MIC [7]: > 50 µg/mL
- MIC [8]: > 50 µg/mL
- IC50 [9]: 2900 nM
- MIC [10]: > 50 µg/mL
- Activity [11]: Non-toxic

SMILES: CC(=O)c1ccc(NC(=O)/C=C/C(=O)N2C/C(=C\c3ccccc3)C(=O)/C(=C/c3ccccc3)C2)cc1
- MIC [3]: > 50 µg/mL
- IC50 [4]: 1400 nM
- IC50 [5]: 1700 nM
- MIC [6]: > 50 µg/mL
- MIC [7]: > 50 µg/mL
- MIC [8]: > 50 µg/mL
- IC50 [9]: 5500 nM
- MIC [10]: > 50 µg/mL
- Activity [11]: Non-toxic

SMILES: O=C(/C=C/C(=O)N1C/C(=C\c2ccc([N+](=O)[O-])cc2)C(=O)/C(=C/c2ccc([N+](=O)[O-])cc2)C1)Nc1ccc(Cl)c(Cl)c1
- MIC [3]: > 50 µg/mL
- IC50 [4]: 600 nM
- IC50 [5]: 380 nM
- MIC [6]: > 50 µg/mL
- MIC [7]: > 50 µg/mL
- MIC [8]: > 50 µg/mL
- IC50 [9]: 1700 nM
- MIC [10]: > 50 µg/mL
- Activity [11]: Non-toxic
- inhibition [13]: 50%

SMILES: C[C@@H](c1ncncc1F)[C@](O)(Cn1cncn1)c1ccc(F)cc1F [VORICONAZOLE]
- MIC [3]: ≤ 0.25 µg/mL
- MIC [6]: ≤ 0.25 µg/mL
- MIC [7]: ≤ 0.25 µg/mL
- MIC [8]: ≤ 0.25 µg/mL
- MIC [10]: ≤ 0.25 µg/mL

SMILES: O=C(/C=C/C(=O)N1C/C(=C\c2ccccc2)C(=O)/C(=C/c2ccccc2)C1)Nc1ccc(Cl)c(Cl)c1
- MIC [3]: > 50 µg/mL
- IC50 [4]: 1700 nM
- GI50 [1]: 646 nM
- IC50 [5]: 350 nM
- MIC [6]: > 50 µg/mL
- MIC [7]: > 50 µg/mL
- GI50 [2]: 447 nM
- MIC [8]: > 50 µg/mL
- IC50 [9]: 7500 nM
- MIC [10]: > 50 µg/mL
- Activity [11]: Non-toxic
- inhibition [13]: 50%

— ChEMBL document CHEMBL1149619, “E,E,E-1-(4-Arylamino-4-oxo-2-butenoyl)-3,5-bis(arylidene)-4-piperidones: a topographical study of some novel potent cytotoxins” (Bioorg Med Chem, 2007)
